Experiments:
[1] = target: Beta-1 adrenergic receptor (Homo sapiens) (UniProt P08588); assay: beta1 (h) Eurofins-Cerep Cellular and Nuclear Receptor Functional Assays; details: Compound concentration 10.0 uM
[2] = target: Beta-2 adrenergic receptor (Homo sapiens) (UniProt P07550); assay: beta2 (h) Eurofins-Cerep Cellular and Nuclear Receptor Functional Assays; details: Compound concentration 10.0 uM
[3] = target: D(2) dopamine receptor (Homo sapiens) (UniProt P14416); assay: D2s (h) Eurofins-Cerep Cellular and Nuclear Receptor Functional Assays; details: Compound concentration 10.0 uM
[4] = target: 5-hydroxytryptamine receptor 2B (Homo sapiens) (UniProt P41595); assay: 5-HT2B (h) Eurofins-Cerep Cellular and Nuclear Receptor Functional Assays; details: Compound concentration 10.0 uM
[5] = target: 5-hydroxytryptamine receptor 6 (Homo sapiens) (UniProt P50406); assay: 5-HT6 (h) Eurofins-Cerep Cellular and Nuclear Receptor Functional Assays; details: Compound concentration 10.0 uM
[6] = tested on: Tyrosine-protein kinase ABL1 (Homo sapiens), P00519 [F317I]; details: Compound concentration 1000.0 nM
[7] = target: Tyrosine-protein kinase ABL1 (Homo sapiens) (UniProt P00519); details: Compound concentration 1000.0 nM
[8] = target: Activin receptor type-1 (Homo sapiens) (UniProt Q04771); details: Compound concentration 1000.0 nM
[9] = target: RAC-alpha serine/threonine-protein kinase (Homo sapiens) (UniProt P31749); details: Compound concentration 1000.0 nM
[10] = target: Serine/threonine-protein kinase BRSK1 (Homo sapiens) (UniProt Q8TDC3); details: Compound concentration 1000.0 nM
[11] = target: Calcium/calmodulin-dependent protein kinase type 1 (Homo sapiens) (UniProt Q14012); details: Compound concentration 1000.0 nM
[12] = target: Calcium/calmodulin-dependent protein kinase type II subunit beta (Homo sapiens) (UniProt Q13554); details: Compound concentration 1000.0 nM
[13] = target: Peripheral plasma membrane protein CASK (Homo sapiens) (UniProt O14936); details: Compound concentration 1000.0 nM
[14] = target: Macrophage colony-stimulating factor 1 receptor (Homo sapiens) (UniProt P07333); details: Compound concentration 1000.0 nM
[15] = target: Casein kinase I isoform delta (Homo sapiens) (UniProt P48730); details: Compound concentration 1000.0 nM
[16] = tested on: Epidermal growth factor receptor (Homo sapiens), P00533 [L858R]; details: Compound concentration 1000.0 nM
[17] = target: Ephrin type-A receptor 6 (Homo sapiens) (UniProt Q9UF33); details: Compound concentration 1000.0 nM
[18] = target: Ephrin type-A receptor 8 (Homo sapiens) (UniProt P29322); details: Compound concentration 1000.0 nM
[19] = target: Mitogen-activated protein kinase 15 (Homo sapiens) (UniProt Q8TD08); details: Compound concentration 1000.0 nM
[20] = target: Tyrosine-protein kinase FRK (Homo sapiens) (UniProt P42685); details: Compound concentration 1000.0 nM
[21] = target: G protein-coupled receptor kinase 4 (Homo sapiens) (UniProt P32298); details: Compound concentration 1000.0 nM
[22] = target: Glycogen synthase kinase-3 alpha (Homo sapiens) (UniProt P49840); details: Compound concentration 1000.0 nM
[23] = target: Mast/stem cell growth factor receptor Kit (Homo sapiens) (UniProt P10721); details: Compound concentration 1000.0 nM
[24] = target: Tyrosine-protein kinase Lck (Homo sapiens) (UniProt P06239); details: Compound concentration 1000.0 nM
[25] = target: Serine/threonine-protein kinase MARK1 (Homo sapiens) (UniProt Q9P0L2); details: Compound concentration 1000.0 nM
[26] = target: MAP kinase-interacting serine/threonine-protein kinase 1 (Homo sapiens) (UniProt Q9BUB5); details: Compound concentration 1000.0 nM
[27] = target: Serine/threonine-protein kinase Nek1 (Homo sapiens) (UniProt Q96PY6); details: Compound concentration 1000.0 nM
[28] = target: Serine/threonine-protein kinase Nek5 (Homo sapiens) (UniProt Q6P3R8); details: Compound concentration 1000.0 nM
[29] = target: Mitogen-activated protein kinase 11 (Homo sapiens) (UniProt Q15759); details: Compound concentration 1000.0 nM
[30] = tested on: Phosphatidylinositol 4,5-bisphosphate 3-kinase catalytic subunit alpha isoform (Homo sapiens), P42336 [M1043I]; details: Compound concentration 1000.0 nM
[31] = target: Phosphatidylinositol 4,5-bisphosphate 3-kinase catalytic subunit beta isoform (Homo sapiens) (UniProt P42338); details: Compound concentration 1000.0 nM
[32] = target: Phosphatidylinositol 4-kinase beta (Homo sapiens) (UniProt Q9UBF8); details: Compound concentration 1000.0 nM
[33] = target: Serine/threonine-protein kinase pim-1 (Homo sapiens) (UniProt P11309); details: Compound concentration 1000.0 nM
[34] = target: cAMP-dependent protein kinase catalytic subunit alpha (Homo sapiens) (UniProt P17612); details: Compound concentration 1000.0 nM
[35] = target: Receptor-interacting serine/threonine-protein kinase 2 (Homo sapiens) (UniProt O43353); details: Compound concentration 1000.0 nM
[36] = target: Receptor-interacting serine/threonine-protein kinase 4 (Homo sapiens) (UniProt P57078); details: Compound concentration 1000.0 nM
[37] = target: Ribosomal protein S6 kinase alpha-5 (Homo sapiens) (UniProt O75582); details: Compound concentration 1000.0 nM
[38] = target: SNF-related serine/threonine-protein kinase (Homo sapiens) (UniProt Q9NRH2); details: Compound concentration 1000.0 nM
[39] = target: Testis-specific serine/threonine-protein kinase 1 (Homo sapiens) (UniProt Q9BXA7); details: Compound concentration 1000.0 nM
[40] = target: Mitogen-activated protein kinase kinase kinase 20 (Homo sapiens) (UniProt Q9NYL2); details: Compound concentration 1000.0 nM
[41] = target: D(2) dopamine receptor (Homo sapiens) (UniProt P14416); details: Compound concentration 10.0 uM
[42] = target: Sodium-dependent dopamine transporter (Homo sapiens) (UniProt Q01959); details: Compound concentration 10.0 uM
[43] = target: Alpha-1B adrenergic receptor (Homo sapiens) (UniProt P35368); details: Compound concentration 10.0 uM
[44] = species on record: Rattus norvegicus; details: Compound concentration 10.0 uM

D(2) dopamine receptor (Homo sapiens), sequence (P14416 whole entry): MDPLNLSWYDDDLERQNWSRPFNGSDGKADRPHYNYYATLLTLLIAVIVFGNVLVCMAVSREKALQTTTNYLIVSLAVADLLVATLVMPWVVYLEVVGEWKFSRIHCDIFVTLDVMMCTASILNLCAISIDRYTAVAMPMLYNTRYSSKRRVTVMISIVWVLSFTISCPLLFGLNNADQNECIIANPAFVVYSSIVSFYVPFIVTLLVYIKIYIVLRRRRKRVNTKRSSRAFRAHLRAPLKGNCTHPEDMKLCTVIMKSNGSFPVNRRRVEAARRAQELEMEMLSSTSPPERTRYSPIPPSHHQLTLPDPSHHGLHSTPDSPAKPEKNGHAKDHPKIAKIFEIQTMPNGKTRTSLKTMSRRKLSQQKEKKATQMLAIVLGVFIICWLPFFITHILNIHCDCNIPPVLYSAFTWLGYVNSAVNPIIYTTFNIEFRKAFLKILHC
Beta-1 adrenergic receptor (Homo sapiens), sequence (P08588 whole entry, looked up): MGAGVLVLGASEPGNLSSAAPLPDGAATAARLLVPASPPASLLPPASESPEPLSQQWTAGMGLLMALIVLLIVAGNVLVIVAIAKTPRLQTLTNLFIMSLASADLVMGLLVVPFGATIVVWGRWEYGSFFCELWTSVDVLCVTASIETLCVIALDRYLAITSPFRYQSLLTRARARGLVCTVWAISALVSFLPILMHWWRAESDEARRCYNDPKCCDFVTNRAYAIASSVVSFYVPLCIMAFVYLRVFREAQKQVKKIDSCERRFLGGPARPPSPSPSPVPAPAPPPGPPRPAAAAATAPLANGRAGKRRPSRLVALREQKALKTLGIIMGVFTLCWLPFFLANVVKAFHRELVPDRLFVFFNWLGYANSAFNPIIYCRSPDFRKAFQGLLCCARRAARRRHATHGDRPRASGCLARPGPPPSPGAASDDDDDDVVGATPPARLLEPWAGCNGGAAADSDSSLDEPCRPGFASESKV
5-hydroxytryptamine receptor 2B (Homo sapiens), sequence (P41595 whole entry): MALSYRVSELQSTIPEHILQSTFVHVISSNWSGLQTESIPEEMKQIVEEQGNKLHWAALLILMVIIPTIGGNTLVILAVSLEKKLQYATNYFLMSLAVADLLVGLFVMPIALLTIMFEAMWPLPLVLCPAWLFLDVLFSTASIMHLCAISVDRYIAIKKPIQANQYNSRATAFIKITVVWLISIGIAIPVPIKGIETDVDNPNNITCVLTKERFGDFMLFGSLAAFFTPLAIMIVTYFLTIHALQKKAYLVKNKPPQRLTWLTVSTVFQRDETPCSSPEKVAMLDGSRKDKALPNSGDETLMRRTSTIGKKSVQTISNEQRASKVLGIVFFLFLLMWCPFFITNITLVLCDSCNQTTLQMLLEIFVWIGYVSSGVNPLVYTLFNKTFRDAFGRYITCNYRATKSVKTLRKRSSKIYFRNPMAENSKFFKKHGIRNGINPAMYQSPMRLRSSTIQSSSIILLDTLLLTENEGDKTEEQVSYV
Beta-2 adrenergic receptor (Homo sapiens), sequence (P07550 whole entry, looked up): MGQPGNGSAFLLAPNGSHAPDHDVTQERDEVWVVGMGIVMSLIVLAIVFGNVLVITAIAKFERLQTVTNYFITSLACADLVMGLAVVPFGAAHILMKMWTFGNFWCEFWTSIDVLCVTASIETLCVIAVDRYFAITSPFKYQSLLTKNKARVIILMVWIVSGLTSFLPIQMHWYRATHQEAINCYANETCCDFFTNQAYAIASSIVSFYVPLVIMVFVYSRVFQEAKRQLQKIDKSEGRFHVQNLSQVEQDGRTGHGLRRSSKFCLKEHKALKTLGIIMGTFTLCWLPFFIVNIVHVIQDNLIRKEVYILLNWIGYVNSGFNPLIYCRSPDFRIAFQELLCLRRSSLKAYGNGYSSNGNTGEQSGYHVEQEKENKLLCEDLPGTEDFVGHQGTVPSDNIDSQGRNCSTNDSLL
5-hydroxytryptamine receptor 6 (Homo sapiens), sequence (P50406 whole entry): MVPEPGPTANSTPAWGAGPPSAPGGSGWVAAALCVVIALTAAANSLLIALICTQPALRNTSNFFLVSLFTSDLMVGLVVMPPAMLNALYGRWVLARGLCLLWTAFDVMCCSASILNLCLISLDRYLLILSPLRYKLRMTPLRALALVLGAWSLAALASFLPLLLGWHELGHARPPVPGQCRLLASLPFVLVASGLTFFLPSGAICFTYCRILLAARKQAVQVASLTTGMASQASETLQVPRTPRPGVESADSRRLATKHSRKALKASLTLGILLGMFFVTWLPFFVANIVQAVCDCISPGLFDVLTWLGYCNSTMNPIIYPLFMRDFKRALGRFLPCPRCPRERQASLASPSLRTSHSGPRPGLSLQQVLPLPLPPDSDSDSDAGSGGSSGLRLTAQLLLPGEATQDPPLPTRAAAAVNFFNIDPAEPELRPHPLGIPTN
Mitogen-activated protein kinase kinase kinase 20 (Homo sapiens), sequence (Q9NYL2 2-800 limits assumed): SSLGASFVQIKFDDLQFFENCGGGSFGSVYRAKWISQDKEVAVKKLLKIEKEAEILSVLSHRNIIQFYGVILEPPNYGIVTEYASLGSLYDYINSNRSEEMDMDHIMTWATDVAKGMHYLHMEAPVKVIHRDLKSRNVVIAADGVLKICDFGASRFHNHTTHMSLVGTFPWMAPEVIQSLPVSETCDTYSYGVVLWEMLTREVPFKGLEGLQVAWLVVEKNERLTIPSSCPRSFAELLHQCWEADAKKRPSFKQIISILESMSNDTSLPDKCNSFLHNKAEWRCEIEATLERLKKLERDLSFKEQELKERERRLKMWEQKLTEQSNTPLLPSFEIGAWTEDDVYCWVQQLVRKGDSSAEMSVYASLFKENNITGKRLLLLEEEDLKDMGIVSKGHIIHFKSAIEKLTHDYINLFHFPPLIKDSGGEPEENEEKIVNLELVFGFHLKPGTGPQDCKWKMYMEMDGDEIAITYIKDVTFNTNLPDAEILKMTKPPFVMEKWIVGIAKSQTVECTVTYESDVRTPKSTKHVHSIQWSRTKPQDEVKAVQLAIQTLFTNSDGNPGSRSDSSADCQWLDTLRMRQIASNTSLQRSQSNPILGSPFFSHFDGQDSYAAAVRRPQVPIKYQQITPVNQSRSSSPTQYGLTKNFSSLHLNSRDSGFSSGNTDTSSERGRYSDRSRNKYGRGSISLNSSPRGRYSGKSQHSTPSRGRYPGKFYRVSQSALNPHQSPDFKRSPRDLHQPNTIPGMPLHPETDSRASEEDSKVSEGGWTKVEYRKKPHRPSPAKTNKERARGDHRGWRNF
Tyrosine-protein kinase Lck (Homo sapiens), sequence (P06239 2-509 limits assumed): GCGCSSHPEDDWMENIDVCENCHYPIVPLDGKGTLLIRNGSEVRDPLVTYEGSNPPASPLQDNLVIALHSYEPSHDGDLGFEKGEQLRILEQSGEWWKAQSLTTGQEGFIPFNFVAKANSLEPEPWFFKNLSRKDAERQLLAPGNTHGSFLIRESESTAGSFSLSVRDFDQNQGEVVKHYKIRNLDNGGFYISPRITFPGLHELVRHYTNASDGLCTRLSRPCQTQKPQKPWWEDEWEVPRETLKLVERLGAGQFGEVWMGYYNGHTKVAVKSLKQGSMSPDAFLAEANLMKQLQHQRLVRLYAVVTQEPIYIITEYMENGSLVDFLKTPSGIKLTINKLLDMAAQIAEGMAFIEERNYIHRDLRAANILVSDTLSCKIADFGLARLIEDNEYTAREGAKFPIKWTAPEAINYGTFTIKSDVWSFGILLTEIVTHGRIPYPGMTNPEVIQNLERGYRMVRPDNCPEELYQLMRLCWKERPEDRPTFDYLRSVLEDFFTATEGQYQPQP
Alpha-1B adrenergic receptor (Homo sapiens), sequence (P35368 whole entry): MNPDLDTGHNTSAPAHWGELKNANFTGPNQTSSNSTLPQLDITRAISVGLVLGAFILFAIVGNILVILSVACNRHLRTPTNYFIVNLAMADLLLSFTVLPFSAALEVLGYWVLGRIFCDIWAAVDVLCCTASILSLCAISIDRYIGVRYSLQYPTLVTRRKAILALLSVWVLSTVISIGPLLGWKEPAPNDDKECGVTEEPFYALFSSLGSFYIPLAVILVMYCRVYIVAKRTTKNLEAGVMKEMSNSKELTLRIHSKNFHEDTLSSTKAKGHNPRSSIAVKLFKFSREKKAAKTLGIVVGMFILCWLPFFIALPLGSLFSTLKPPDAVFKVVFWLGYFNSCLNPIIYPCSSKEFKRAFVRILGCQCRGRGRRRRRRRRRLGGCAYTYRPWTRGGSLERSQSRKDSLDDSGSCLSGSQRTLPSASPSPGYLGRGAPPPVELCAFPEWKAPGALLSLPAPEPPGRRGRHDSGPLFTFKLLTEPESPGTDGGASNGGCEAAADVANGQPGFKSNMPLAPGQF
Activin receptor type-1 (Homo sapiens), sequence (Q04771 whole entry): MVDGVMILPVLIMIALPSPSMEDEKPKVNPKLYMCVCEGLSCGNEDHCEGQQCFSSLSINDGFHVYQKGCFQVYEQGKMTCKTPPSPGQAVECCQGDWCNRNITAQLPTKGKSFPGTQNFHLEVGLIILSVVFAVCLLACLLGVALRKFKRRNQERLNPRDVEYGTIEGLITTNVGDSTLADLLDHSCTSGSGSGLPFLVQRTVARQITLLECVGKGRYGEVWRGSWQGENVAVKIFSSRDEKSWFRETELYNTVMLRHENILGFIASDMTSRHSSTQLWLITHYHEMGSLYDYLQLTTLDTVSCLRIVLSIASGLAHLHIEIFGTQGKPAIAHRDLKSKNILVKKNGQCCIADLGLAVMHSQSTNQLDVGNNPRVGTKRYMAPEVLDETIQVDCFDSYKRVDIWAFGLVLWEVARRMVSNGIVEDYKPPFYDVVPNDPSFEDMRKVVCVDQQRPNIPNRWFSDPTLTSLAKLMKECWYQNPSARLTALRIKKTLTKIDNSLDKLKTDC
Serine/threonine-protein kinase pim-1 (Homo sapiens), sequence (P11309 whole entry, looked up): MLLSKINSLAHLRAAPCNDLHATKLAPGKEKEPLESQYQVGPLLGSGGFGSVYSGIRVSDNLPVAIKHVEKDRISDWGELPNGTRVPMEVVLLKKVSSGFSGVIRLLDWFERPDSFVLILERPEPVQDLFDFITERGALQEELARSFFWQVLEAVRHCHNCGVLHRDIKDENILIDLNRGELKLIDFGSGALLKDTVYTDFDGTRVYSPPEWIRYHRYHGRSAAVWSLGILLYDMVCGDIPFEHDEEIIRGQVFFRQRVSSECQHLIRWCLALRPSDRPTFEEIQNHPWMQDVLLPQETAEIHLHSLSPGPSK

Which % Inhibition of Control Agonist Response (Mean n=2) [1] does the source give for O=C(N1CCS(=O)(=O)CC1)N1C[C@H](c2ccc(OC(F)(F)F)cc2)C[C@H](c2nc(C3CC3)no2)C1 [BAY-386] here?
The % Inhibition of Control Agonist Response (Mean n=2) was -0.2%.

What about the % of Control Agonist Response (Mean n=2) [1] of the same molecule?
The % of Control Agonist Response (Mean n=2) was 3.4%.

What about the % Inhibition of Control Agonist Response (Mean n=2) [2] of the same molecule?
Its % Inhibition of Control Agonist Response (Mean n=2) is -6.9%.

What about the % of Control Agonist Response (Mean n=2) [2] of the same molecule?
Its % of Control Agonist Response (Mean n=2) is -1.7%.

And the % Inhibition of Control Agonist Response (Mean n=2) [3]?
Its % Inhibition of Control Agonist Response (Mean n=2) is 6.6%.

And the % of Control Agonist Response (Mean n=2) [3]?
The % of Control Agonist Response (Mean n=2) was 4%.

What about the % Inhibition of Control Agonist Response (Mean n=2) [4] of the same molecule?
The % Inhibition of Control Agonist Response (Mean n=2) was 7%.

What about the % of Control Agonist Response (Mean n=2) [4] of the same molecule?
The % of Control Agonist Response (Mean n=2) was 1.6%.

And the % Inhibition of Control Agonist Response (Mean n=2) [5]?
Its % Inhibition of Control Agonist Response (Mean n=2) is 21.1%.

And the % of Control Agonist Response (Mean n=2) [5]?
Its % of Control Agonist Response (Mean n=2) is 2.8%.

What about the residual activity [6] of the same molecule?
Its residual activity is 100%.

What about the residual activity [7] of the same molecule?
The residual activity was 84%.

And the residual activity [8]?
The residual activity was 100%.

What about the residual activity [9] of the same molecule?
The residual activity was 96%.

And the residual activity [10]?
Its residual activity is 100%.

And the residual activity [11]?
Its residual activity is 100%.

What about the residual activity [12] of the same molecule?
The residual activity was 100%.

What about the residual activity [13] of the same molecule?
Its residual activity is 100%.

What about the residual activity [14] of the same molecule?
The residual activity was 100%.

And the residual activity [15]?
Its residual activity is 100%.

What about the residual activity [16] of the same molecule?
The residual activity was 100%.

What about the residual activity [17] of the same molecule?
Its residual activity is 100%.

And the residual activity [18]?
Its residual activity is 100%.

And the residual activity [19]?
The residual activity was 100%.

And the residual activity [20]?
The residual activity was 100%.

And the residual activity [21]?
The residual activity was 100%.

What about the residual activity [22] of the same molecule?
The residual activity was 100%.

And the residual activity [23]?
Its residual activity is 100%.

And the residual activity [24]?
Its residual activity is 100%.

And the residual activity [25]?
Its residual activity is 100%.

What about the residual activity [26] of the same molecule?
Its residual activity is 100%.

What about the residual activity [27] of the same molecule?
Its residual activity is 100%.

What about the residual activity [28] of the same molecule?
Its residual activity is 98%.

And the residual activity [29]?
The residual activity was 100%.

And the residual activity [30]?
Its residual activity is 100%.

What about the residual activity [31] of the same molecule?
The residual activity was 66%.

What about the residual activity [32] of the same molecule?
The residual activity was 100%.

What about the residual activity [33] of the same molecule?
Its residual activity is 100%.

What about the residual activity [34] of the same molecule?
Its residual activity is 100%.

What about the residual activity [35] of the same molecule?
The residual activity was 90%.

And the residual activity [36]?
Its residual activity is 97%.

And the residual activity [37]?
Its residual activity is 100%.

What about the residual activity [38] of the same molecule?
The residual activity was 93%.

What about the residual activity [39] of the same molecule?
Its residual activity is 95%.

And the residual activity [40]?
The residual activity was 100%.

What about the inhibition [41] of the same molecule?
The inhibition was -0.71%.

And the inhibition [42]?
The inhibition was 0.01%.

What about the inhibition [43] of the same molecule?
The inhibition was 14.2%.

What about the inhibition [44] of the same molecule?
The inhibition was 14.9%.

How did the % Inhibition of Control Agonist Response (Mean n=2) [1] turn out when Cc1noc([C@H]2C[C@@H](c3ccc(C(F)(F)F)cc3)CN(C(=O)N3CCS(=O)(=O)C3)C2)n1 [BAY-448] was run?
The % Inhibition of Control Agonist Response (Mean n=2) was 6.8%.

And the % of Control Agonist Response (Mean n=2) [1]?
Its % of Control Agonist Response (Mean n=2) is 0.3%.

And the % Inhibition of Control Agonist Response (Mean n=2) [2]?
The % Inhibition of Control Agonist Response (Mean n=2) was 10.2%.

What about the % of Control Agonist Response (Mean n=2) [2] of the same molecule?
Its % of Control Agonist Response (Mean n=2) is 2.3%.

What about the % Inhibition of Control Agonist Response (Mean n=2) [3] of the same molecule?
Its % Inhibition of Control Agonist Response (Mean n=2) is 8.6%.

And the % of Control Agonist Response (Mean n=2) [3]?
The % of Control Agonist Response (Mean n=2) was 3.1%.

And the % Inhibition of Control Agonist Response (Mean n=2) [4]?
The % Inhibition of Control Agonist Response (Mean n=2) was -3%.

And the % of Control Agonist Response (Mean n=2) [4]?
The % of Control Agonist Response (Mean n=2) was 0.4%.

What about the % Inhibition of Control Agonist Response (Mean n=2) [5] of the same molecule?
Its % Inhibition of Control Agonist Response (Mean n=2) is 2.1%.

What about the % of Control Agonist Response (Mean n=2) [5] of the same molecule?
The % of Control Agonist Response (Mean n=2) was 1.4%.

What about the residual activity [6] of the same molecule?
The residual activity was 100%.

And the residual activity [7]?
The residual activity was 71%.

And the residual activity [8]?
The residual activity was 100%.

And the residual activity [9]?
Its residual activity is 90%.

And the residual activity [10]?
The residual activity was 100%.

And the residual activity [11]?
The residual activity was 100%.

And the residual activity [12]?
The residual activity was 100%.

What about the residual activity [13] of the same molecule?
Its residual activity is 93%.

What about the residual activity [14] of the same molecule?
Its residual activity is 100%.

What about the residual activity [15] of the same molecule?
The residual activity was 100%.

And the residual activity [16]?
Its residual activity is 100%.

What about the residual activity [17] of the same molecule?
The residual activity was 100%.

And the residual activity [18]?
The residual activity was 100%.

What about the residual activity [19] of the same molecule?
Its residual activity is 100%.

And the residual activity [20]?
The residual activity was 100%.

And the residual activity [21]?
Its residual activity is 99%.

What about the residual activity [22] of the same molecule?
The residual activity was 79%.

And the residual activity [23]?
Its residual activity is 84%.

And the residual activity [24]?
The residual activity was 100%.

And the residual activity [25]?
The residual activity was 91%.

What about the residual activity [26] of the same molecule?
The residual activity was 99%.

What about the residual activity [27] of the same molecule?
Its residual activity is 100%.

What about the residual activity [28] of the same molecule?
Its residual activity is 100%.

And the residual activity [29]?
Its residual activity is 100%.

What about the residual activity [30] of the same molecule?
Its residual activity is 100%.

And the residual activity [31]?
Its residual activity is 99%.

And the residual activity [32]?
The residual activity was 93%.

And the residual activity [33]?
The residual activity was 100%.

What about the residual activity [34] of the same molecule?
Its residual activity is 100%.

And the residual activity [35]?
Its residual activity is 100%.

What about the residual activity [36] of the same molecule?
Its residual activity is 68%.

And the residual activity [37]?
Its residual activity is 85%.

And the residual activity [38]?
The residual activity was 100%.

What about the residual activity [39] of the same molecule?
The residual activity was 100%.

And the residual activity [40]?
The residual activity was 87%.

What about the inhibition [41] of the same molecule?
The inhibition was -0.15%.

What about the inhibition [42] of the same molecule?
Its inhibition is 5.46%.

What about the inhibition [43] of the same molecule?
The inhibition was -1.18%.

And the inhibition [44]?
The inhibition was 7.2%.

Reference: ChEMBL document CHEMBL4507269, “Data for DCP probe BAY-386” (2021)
